Where two headings read alike, the source gives them in different places.
Columns and labels:
Format in all cases: biochemical
[1] = biological target: T1, cKit(V654A)(h) (Homo sapiens, UniProt P10721, V654A); test: Kinase panel
T1 construct: purchased Millipore KinaseProfiler

[2] = biological target: P70S6K (Homo sapiens, UniProt P23443); test: Kinase IC50 assay
[3] = biological target: T2, Bmx(h) (Homo sapiens, UniProt P51813); test: Kinase panel
T2 construct: purchased Millipore KinaseProfiler
T2 sequence (P51813 1-675): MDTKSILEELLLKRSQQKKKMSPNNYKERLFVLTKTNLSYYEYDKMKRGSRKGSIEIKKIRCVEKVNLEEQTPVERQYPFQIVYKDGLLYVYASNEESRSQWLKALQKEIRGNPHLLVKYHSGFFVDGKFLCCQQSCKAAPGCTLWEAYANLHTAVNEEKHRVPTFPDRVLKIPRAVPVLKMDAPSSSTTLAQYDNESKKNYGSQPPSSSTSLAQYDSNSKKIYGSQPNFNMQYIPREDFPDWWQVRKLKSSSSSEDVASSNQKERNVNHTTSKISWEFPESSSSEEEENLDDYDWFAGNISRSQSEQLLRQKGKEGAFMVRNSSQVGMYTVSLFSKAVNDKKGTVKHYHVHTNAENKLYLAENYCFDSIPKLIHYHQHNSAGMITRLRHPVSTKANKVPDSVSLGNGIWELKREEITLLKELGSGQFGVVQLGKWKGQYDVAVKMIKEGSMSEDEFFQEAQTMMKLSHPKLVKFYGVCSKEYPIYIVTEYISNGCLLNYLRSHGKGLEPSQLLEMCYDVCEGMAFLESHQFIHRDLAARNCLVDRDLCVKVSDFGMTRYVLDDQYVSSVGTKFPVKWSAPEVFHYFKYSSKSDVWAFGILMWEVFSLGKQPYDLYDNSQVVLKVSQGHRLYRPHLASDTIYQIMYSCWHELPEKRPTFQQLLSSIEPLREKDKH

[4] = biological target: PKCε (Homo sapiens, UniProt Q02156); test: Kinase IC50 assay
[5] = biological target: T3, Fes(h) (Homo sapiens, UniProt P07332); test: Kinase panel
T3 construct: purchased Millipore KinaseProfiler

[6] = biological target: T4, NEK7(h) (Homo sapiens, UniProt Q8TDX7); test: Kinase panel
T4 construct: purchased Millipore KinaseProfiler

[7] = biological target: T5, EphB4(h) (Homo sapiens, UniProt P54760); test: Kinase panel
T5 construct: purchased Millipore KinaseProfiler
T5 sequence (P54760 16-987): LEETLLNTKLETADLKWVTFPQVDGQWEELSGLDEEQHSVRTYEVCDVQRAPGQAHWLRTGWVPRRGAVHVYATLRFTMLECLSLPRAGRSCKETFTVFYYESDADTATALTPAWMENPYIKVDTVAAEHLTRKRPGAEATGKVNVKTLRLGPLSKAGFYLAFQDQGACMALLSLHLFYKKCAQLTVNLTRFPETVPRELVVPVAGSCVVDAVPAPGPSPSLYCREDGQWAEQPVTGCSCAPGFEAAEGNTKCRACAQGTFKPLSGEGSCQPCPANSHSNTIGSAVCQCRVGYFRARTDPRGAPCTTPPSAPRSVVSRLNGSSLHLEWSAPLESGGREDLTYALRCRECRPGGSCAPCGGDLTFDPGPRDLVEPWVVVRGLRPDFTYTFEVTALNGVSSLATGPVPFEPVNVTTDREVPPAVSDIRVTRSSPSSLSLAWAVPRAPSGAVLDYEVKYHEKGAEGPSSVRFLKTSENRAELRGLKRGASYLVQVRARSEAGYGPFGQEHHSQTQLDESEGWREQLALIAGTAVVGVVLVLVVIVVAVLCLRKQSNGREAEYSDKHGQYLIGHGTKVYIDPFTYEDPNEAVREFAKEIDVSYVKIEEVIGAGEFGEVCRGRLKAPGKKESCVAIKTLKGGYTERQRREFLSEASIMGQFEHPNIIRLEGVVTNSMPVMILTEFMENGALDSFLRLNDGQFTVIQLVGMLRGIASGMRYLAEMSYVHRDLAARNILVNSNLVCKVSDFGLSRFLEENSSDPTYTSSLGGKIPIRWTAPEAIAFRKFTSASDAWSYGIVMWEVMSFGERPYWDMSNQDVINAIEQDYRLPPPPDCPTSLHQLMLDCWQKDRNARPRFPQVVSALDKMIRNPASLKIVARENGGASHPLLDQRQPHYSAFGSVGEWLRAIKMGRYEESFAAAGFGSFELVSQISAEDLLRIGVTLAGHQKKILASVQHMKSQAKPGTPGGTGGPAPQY

[8] = biological target: T6, Abl(m) (Mus musculus, UniProt P00520); test: Kinase panel
T6 construct: purchased Millipore KinaseProfiler

[9] = biological target: T7, KDR(h) (Homo sapiens, UniProt P35968); test: Kinase panel
T7 construct: purchased Millipore KinaseProfiler

[10] = biological target: T8, IKKα(h) (Homo sapiens, UniProt O15111); test: Kinase panel
T8 construct: purchased Millipore KinaseProfiler
T8 sequence (O15111 1-745): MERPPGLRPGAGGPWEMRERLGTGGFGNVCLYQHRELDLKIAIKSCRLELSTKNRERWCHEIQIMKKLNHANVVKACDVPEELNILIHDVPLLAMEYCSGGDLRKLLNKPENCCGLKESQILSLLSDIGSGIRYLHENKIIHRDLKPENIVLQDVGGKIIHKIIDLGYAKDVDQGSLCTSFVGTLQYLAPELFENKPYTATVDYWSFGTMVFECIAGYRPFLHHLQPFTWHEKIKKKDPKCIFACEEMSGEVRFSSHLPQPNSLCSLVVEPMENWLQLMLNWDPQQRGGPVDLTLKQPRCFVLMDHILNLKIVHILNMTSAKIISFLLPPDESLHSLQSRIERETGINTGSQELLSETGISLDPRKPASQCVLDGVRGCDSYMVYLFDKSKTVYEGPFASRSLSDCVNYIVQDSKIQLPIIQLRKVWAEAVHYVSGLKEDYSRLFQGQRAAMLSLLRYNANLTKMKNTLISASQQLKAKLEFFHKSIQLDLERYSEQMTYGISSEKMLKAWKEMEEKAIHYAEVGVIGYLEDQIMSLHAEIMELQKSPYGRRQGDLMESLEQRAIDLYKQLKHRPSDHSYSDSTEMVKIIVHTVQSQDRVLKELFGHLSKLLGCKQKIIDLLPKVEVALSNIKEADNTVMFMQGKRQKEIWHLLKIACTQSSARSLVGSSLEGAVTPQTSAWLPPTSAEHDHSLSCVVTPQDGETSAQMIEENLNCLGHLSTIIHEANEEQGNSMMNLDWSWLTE

T4 sequence (Q8TDX7 whole entry): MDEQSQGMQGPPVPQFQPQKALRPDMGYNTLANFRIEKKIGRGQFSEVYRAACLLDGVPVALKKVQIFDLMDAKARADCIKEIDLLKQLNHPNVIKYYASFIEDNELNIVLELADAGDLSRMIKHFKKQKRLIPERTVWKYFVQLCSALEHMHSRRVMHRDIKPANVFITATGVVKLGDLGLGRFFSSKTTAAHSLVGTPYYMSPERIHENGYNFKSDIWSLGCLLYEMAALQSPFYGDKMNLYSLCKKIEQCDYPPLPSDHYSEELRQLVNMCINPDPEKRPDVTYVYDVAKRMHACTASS
T7 sequence (P35968 20-1356): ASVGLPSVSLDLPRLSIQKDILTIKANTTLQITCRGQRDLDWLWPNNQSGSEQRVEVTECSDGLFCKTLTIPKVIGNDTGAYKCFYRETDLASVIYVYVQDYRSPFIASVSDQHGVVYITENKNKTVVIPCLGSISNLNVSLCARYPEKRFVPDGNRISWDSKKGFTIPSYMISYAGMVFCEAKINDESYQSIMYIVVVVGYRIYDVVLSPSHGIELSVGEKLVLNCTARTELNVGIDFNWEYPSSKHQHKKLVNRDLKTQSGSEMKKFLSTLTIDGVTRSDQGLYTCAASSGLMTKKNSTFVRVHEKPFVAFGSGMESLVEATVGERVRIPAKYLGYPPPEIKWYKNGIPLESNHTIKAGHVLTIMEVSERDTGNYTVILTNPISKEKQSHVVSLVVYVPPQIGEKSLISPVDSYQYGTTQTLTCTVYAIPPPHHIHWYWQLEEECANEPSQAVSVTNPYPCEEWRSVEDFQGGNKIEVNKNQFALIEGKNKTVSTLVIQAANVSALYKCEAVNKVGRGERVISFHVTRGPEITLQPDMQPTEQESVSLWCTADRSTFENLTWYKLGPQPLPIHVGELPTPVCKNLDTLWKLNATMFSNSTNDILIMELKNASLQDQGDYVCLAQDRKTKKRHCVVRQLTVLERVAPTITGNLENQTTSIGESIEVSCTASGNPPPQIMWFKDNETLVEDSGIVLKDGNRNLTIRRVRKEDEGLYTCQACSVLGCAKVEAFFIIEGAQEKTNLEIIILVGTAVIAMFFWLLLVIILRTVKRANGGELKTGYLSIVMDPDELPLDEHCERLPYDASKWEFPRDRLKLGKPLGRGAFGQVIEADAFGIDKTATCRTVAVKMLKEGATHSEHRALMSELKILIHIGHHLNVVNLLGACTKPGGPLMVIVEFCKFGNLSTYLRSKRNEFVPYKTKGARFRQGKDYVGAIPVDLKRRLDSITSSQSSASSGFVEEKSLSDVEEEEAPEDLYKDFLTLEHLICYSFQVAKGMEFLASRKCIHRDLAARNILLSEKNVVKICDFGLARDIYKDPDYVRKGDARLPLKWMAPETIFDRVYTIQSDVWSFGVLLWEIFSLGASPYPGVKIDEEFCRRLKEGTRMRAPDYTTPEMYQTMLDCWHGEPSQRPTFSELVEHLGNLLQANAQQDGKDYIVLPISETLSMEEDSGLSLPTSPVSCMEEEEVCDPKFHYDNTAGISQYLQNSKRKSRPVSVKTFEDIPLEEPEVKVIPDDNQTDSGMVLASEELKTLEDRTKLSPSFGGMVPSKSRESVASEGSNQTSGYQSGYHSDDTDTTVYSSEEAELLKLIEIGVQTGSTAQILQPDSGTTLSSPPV
T6 sequence (P00520 27-1123 limits assumed): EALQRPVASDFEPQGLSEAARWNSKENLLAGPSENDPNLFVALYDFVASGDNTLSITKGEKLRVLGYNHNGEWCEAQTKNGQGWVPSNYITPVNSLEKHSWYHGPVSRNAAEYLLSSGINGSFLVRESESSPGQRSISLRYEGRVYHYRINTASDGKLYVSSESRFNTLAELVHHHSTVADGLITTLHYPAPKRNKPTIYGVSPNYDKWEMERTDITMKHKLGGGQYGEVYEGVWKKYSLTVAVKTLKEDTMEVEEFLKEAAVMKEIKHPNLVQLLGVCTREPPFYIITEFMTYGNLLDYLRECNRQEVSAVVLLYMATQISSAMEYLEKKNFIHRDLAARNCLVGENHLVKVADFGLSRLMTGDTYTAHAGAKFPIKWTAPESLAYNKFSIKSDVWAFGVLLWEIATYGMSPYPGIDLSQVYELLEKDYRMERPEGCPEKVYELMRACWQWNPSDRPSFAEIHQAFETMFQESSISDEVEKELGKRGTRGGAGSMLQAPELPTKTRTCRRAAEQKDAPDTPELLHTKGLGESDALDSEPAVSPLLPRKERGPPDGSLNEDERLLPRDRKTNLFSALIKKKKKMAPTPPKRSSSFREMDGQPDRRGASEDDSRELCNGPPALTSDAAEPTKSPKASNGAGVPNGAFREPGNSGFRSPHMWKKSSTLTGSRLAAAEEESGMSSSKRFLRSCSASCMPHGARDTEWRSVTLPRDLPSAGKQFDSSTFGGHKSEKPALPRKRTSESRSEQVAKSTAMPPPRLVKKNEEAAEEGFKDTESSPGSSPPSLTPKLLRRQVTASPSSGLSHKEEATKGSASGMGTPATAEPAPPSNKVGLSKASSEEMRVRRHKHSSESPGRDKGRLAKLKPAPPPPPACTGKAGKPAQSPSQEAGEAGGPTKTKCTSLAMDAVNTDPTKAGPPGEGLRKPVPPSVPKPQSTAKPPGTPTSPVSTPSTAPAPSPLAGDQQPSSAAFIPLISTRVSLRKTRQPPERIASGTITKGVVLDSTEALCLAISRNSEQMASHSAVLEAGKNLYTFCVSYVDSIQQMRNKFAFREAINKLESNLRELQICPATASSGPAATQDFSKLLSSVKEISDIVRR
T3 sequence (P07332 whole entry): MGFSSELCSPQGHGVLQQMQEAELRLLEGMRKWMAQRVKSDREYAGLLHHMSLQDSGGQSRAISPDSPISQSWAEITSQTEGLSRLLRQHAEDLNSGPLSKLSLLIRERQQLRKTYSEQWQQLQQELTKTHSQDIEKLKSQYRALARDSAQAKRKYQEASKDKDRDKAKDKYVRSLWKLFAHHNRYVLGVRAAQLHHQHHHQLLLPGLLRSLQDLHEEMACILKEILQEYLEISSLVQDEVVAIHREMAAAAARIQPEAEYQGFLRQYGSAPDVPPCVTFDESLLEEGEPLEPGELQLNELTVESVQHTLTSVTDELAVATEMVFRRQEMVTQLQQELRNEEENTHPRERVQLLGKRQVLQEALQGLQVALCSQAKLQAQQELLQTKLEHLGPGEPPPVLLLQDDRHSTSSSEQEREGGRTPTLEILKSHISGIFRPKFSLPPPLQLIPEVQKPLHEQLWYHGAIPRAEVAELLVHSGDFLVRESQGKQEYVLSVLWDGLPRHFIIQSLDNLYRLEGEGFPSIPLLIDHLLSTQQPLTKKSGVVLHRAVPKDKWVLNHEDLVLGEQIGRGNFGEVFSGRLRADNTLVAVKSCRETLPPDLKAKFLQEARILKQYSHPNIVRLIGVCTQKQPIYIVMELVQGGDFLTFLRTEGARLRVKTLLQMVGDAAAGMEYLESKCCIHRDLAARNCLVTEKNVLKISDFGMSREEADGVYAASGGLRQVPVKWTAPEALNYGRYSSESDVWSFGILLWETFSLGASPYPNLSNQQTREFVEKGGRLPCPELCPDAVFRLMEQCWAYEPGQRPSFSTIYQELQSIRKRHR
T1 sequence (P10721 26-976 V654A): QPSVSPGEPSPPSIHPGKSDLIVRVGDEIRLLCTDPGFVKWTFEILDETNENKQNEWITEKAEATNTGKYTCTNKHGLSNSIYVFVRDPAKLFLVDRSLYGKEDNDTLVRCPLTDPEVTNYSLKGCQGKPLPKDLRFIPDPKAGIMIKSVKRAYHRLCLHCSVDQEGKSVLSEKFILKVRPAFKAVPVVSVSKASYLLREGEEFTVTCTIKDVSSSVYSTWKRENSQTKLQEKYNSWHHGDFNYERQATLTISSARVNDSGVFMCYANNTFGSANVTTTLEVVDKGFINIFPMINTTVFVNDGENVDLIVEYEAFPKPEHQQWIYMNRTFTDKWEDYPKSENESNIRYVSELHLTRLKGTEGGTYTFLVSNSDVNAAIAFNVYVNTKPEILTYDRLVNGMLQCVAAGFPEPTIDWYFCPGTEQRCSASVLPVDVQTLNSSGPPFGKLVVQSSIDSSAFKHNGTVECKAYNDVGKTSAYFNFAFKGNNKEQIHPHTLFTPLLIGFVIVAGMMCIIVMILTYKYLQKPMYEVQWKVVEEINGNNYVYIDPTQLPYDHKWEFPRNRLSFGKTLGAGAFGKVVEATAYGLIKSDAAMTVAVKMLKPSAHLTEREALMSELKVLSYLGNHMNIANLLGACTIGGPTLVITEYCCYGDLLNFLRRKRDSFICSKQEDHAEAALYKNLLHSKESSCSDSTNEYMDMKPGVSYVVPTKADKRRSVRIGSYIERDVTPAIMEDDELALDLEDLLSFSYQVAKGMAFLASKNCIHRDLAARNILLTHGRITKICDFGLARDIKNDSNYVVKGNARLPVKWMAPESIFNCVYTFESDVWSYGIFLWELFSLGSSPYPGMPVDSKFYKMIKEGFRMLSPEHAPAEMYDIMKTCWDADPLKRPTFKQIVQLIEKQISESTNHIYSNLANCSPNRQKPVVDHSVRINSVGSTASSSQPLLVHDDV
P70S6K, sequence (P23443 whole entry): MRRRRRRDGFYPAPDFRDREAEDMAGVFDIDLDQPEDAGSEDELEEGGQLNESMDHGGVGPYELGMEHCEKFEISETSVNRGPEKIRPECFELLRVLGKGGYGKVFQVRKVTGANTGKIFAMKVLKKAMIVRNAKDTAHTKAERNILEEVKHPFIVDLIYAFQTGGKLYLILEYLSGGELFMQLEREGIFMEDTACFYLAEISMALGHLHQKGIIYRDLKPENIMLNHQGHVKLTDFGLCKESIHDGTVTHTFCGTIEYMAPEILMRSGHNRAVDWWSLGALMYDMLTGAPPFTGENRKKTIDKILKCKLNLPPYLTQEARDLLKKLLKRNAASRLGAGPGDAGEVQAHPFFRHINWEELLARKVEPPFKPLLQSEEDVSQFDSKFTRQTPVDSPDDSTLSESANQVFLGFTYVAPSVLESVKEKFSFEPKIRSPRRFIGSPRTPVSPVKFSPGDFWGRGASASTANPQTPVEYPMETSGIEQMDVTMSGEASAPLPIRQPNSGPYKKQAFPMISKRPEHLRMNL

Cn1ncc(Cl)c1-c1cc(C(=O)N[C@H](CN)Cc2cccc(F)c2)sc1Cl [GSK2110183]
inhibition at 0.5 µM [1]: -9%
inhibition at 10 µM [1]: -9%
IC50 [2]: 251 nM
inhibition at 0.5 µM [3]: -2%
inhibition at 10 µM [3]: 18%
IC50 [4]: > 1000 nM
inhibition at 0.5 µM [5]: 9%
inhibition at 10 µM [5]: 48%
inhibition at 0.5 µM [6]: -8%
inhibition at 10 µM [6]: -12%
inhibition at 0.5 µM [7]: 0%
inhibition at 10 µM [7]: 10%
inhibition at 0.5 µM [8]: 8%
inhibition at 10 µM [8]: -5%
inhibition at 0.5 µM [9]: 13%
inhibition at 10 µM [9]: 7%
inhibition at 0.5 µM [10]: 9%
inhibition at 10 µM [10]: 8%

Cn1ncc(Cl)c1-c1cc(C(=O)N[C@H](CN)Cc2ccc(F)c(F)c2)oc1Cl [GSK2141795]
inhibition at 0.5 µM ([1]; 0.5 µM, read-out: % Inhibition): -2%
inhibition at 10 µM ([1]; 10 µM, read-out: % Inhibition): -3%
IC50 [2]: 50 nM
inhibition at 0.5 µM ([3]; 0.5 µM, read-out: % Inhibition): -6%
inhibition at 10 µM ([3]; 10 µM, read-out: % Inhibition): 21%
IC50 [4]: > 1000 nM
inhibition at 0.5 µM ([5]; 0.5 µM, read-out: % Inhibition): 0%
inhibition at 10 µM ([5]; 10 µM, read-out: % Inhibition): 80%
inhibition at 0.5 µM ([6]; 0.5 µM, read-out: % Inhibition): -9%
inhibition at 10 µM ([6]; 10 µM, read-out: % Inhibition): -32%
inhibition at 0.5 µM ([7]; 0.5 µM, read-out: % Inhibition): 5%
inhibition at 10 µM ([7]; 10 µM, read-out: % Inhibition): 5%
inhibition at 0.5 µM ([8]; 0.5 µM, read-out: % Inhibition): 1%
inhibition at 10 µM ([8]; 10 µM, read-out: % Inhibition): 7%
inhibition at 0.5 µM ([9]; 0.5 µM, read-out: % Inhibition): -6%
inhibition at 10 µM ([9]; 10 µM, read-out: % Inhibition): -3%
inhibition at 0.5 µM ([10]; 0.5 µM, read-out: % Inhibition): -12%
inhibition at 10 µM ([10]; 10 µM, read-out: % Inhibition): 6%

Reference: paper PMC4076210, “Discovery of Novel AKT Inhibitors with Enhanced Anti-Tumor Effects in Combination with the MEK Inhibitor” (PLoS ONE, 2014)
